As a reminder, the melting point is the temperature, or range, at which the solid turns liquid. Consider `CCc1ccc(OC)c(-c2csc(NC(=O)c3ccc(C(=O)NCCN4CCCC4)cc3)n2)c1`, for which the melting point came to 170 °C. `CC1(C)COC(=O)N1c1nc(-c2ccc(C#N)cc2)c(F)s1` gave a melting point of 177 to 178 °C. As for `Nc1cc(F)c2c(c1)Cc1cc(F)ccc1-2`, the melting point fell in the range of 119 to 120 °C.

On to `NC(=O)[C@@H]1C[C@]2(NC(=O)N(CCCN3CCC(O)CC3)C2=O)c2cc(F)ccc2O1`, for which the melting point lay in the range of 208 to 209 °C. Consider `CC(C)C(NS(=O)(=O)c1ccc(-c2cccc(CNC(=O)c3nc4ccccc4c(=O)[nH]3)c2)cc1)C(=O)O` (stereo not drawn), for which the melting point is 141 to 143 °C.

Compound `CCCCCC(=O)OCC(=O)C1CC2c3cccc4[nH]cc(c34)CC2N(C)C1` (stereo not drawn) yielded a melting point of 135 to 137 °C.

With `COc1c(OC)c(OC)c2c(=O)cc(-c3ccc(OCc4ccccc4)c(OCc4ccccc4)c3)oc2c1OC`, the melting point was in the range of 157 to 158 °C. For the compound `CCOc1ccc2c(c1)n(C1CCCCC1)c(=O)n2Cc1ccc(C(=O)NC(C)(C)CN(C)C)cc1OC`, the melting point was found to be 161 °C. Regarding `O=c1ccn2c3ccccc3c3cc(Cl)cc1c32`, the melting point is 158 to 159 °C.

In turn, `Cc1nnsc1C(=O)Nc1ccc(-n2nc(C(F)(F)F)cc2C#N)cc1` displayed a melting point of 193 to 195 °C. Turning to `Cc1cc(N)ccc1N=Nc1ccc([N+](=O)[O-])cc1`, the melting point turned out to be 152 °C. Next, `O=C(O)c1cc(-n2c(-c3ccccc3)cc3c2CCc2ccccc2-3)ccc1O`: 223 to 225 °C; `OCCCNc1nc2ccccc2n1-c1ccccc1`: 116 to 118 °C; `CC[C@H](C)[C@H](NC(=O)O[C@@H](CC(C)C)C(=O)OCc1ccccc1)C(=O)NC1CCCCC1`: 98 to 100 °C. On to `COc1ccc(C(N)=O)c(OC)c1-c1ccc(C[C@H](NC(=O)c2c(Cl)cc(NC(N)=O)cc2Cl)C(=O)O)cc1`, for which the melting point lay within 217 to 219 °C. `O=S(CCCCCOc1ccc(C2=C(c3ccccc3)CCCc3cc(O)ccc32)cc1)Cc1ccccn1` (stereo not drawn) registered a melting point of 176 °C. The compound `O=C(Nc1ccc(NC(=O)OCCCl)nc1)OCCCl` returned a melting point of 198 °C. The value for `NC1=NC(c2ccc(OC(F)F)cc2)(c2cccc(-c3cccnc3F)c2)C2=NCC3(CC3)CN12` (stereo not drawn) was 98 to 108 °C; that for `OCc1csc(CN2CCCC2)c1` was 111 to 112 °C; that for `CCCCc1[nH]c2ccc([N+](=O)[O-])cc2c1C(=O)c1ccc(OCCCCl)cc1` was 125 °C.

`OCCn1cc(-c2ccccc2)c(OCc2ccccc2)n1` gave a melting point of 115 °C. With `Cc1ccc(Sc2cncc3sc(C(N)=S)cc23)cc1`, the melting point fell in the range of 181 to 183 °C. As to `O=C(Cc1csc(-c2cccc(O)c2)n1)NC1C(=O)N2C(C(=O)OC(c3ccccc3)c3ccccc3)=CCSC12` (stereo not drawn), the melting point lay in the range of 152 to 154 °C.

Compound `O=C(O)Cc1ccc(Cc2ccccc2CC(=O)O)cc1` returned a melting point of 155 to 156 °C. The value for `COc1ccc(CN2CCc3ncccc3C2)cc1OC` was 76 to 77 °C; that for `O=C(O)CCCNC(=O)CCCCC1CCSS1` (stereo not drawn) was 56 to 58 °C; that for `CSc1cc2cc(-c3ccccc3)ccc2cc1O` was 129 to 130 °C. `CN1CCN2c3ccccc3Cn3c(c(C=O)c4ccccc43)C2C1` (stereo not drawn): the melting point fell in the range of 260 to 266 °C. Next, `O=C(Nc1nc2c(ncn2CC(O)CF)c(=O)[nH]1)c1ccccc1` (racemic): 178 °C; `CCS(=O)c1ccc(-c2coc3ccc(-c4nnc(C)o4)cc23)cc1` (stereo not drawn): 156 to 157 °C; `Cc1ncnn1-c1cc(F)ccc1C#N`: 120 to 121 °C.

The compound `CC(=O)N1CCC(c2ccc3c(c2OCc2ccccc2)CCCC3)CC1` returned a melting point of 108 to 110 °C.

Turning to `CCOC(=O)C(C)(C)n1c(=O)[nH]c2cccc(F)c2c1=O`, the melting point was 168 to 170 °C.

`O=C(Nc1cccc(-c2ccnc3c(C(=O)c4cccs4)cnn23)c1)c1ccncc1`: the melting point is 220 to 222 °C.

`C=CCC1C(=O)CCCC1=O`: the melting point lay in the range of 125 to 127 °C. Next, `CCCCOc1ccc(NS(=O)(=O)c2ccc(N3CCNC3=O)cc2)cc1`: 223 to 225 °C; `CCCCCCc1cc2c(s1)-n1c(C)nnc1CN=C2c1ccccc1OC`: 128 to 130 °C. For `O=C(O)CCCCCCCn1c(Cc2ccccc2)nc(-c2ccccc2)c1-c1ccccc1`, the melting point was in the range of 148 to 149 °C. The value for `O=C1CCC(=O)N(c2ccc(N3CCN(C4(c5ccc(-c6ccccc6)cc5)C(=O)NC(=O)NC4=O)CC3)cc2)C1` was 300 to 301 °C. For `COC(=O)Cc1ccc2nc(C(F)(F)F)cc(Cl)c2c1`, the melting point lay within 108 to 109 °C.

On to `COc1cc(C(=O)COC(C)=O)ccc1O`, for which the melting point fell in the range of 115 to 117 °C.

Regarding `C=Cn1cc(C(=O)O)c(=O)c2cc(F)c(N3CCNCC3)nc21`, the melting point was 256 to 260 °C.

With `COc1ccc(-c2cc3cc(F)c(F)cc3[nH]2)cc1NC(=S)Nc1cccnc1`, the melting point lay in the range of 128 to 130 °C. `Cn1c(=O)c2[nH]c(CCCC(=O)O)nc2n(C)c1=O` displayed a melting point of 254 to 255 °C. `COc1ccc(-n2nc(Sc3ccc(C#N)cc3)c(C)c(C#N)c2=O)cc1` showed a melting point of 195 to 198 °C. The value for `CCCCCCCCCCCCCCCCCCNC(=O)N1CCN(C(=O)c2ccc(CCl)cc2)CC1` was 68 to 70 °C; that for `CCC1(Cl)C(=O)c2c(cc(OCC(=O)O)c(Cl)c2Cl)C1Cl` (stereo not drawn) was 186 °C. The compound `O=C1CCCc2c(O)cccc2N1` displayed a melting point of 244 to 245 °C. Take `Cc1noc(CC(=O)Nc2ccccc2Cl)n1`: the melting point is 118 to 120 °C. The value for `CCOc1ccc(N(c2ccccc2)C2(c3ccc(N(CC)Cc4ccccc4)cc3)OC(=O)c3ccccc32)cc1` (stereo not drawn) was 163 to 173 °C. With `Cc1c(NC(=O)c2ccc(-c3ccc(F)cc3)cc2)ccc2cc(C(O)c3ccccc3)cnc12` (stereo not drawn), the melting point was 182 to 186 °C. Regarding `COc1cccc2c1Sc1cc(Cl)ccc1C2`, the melting point was in the range of 72 to 74 °C.

`CCOC(=O)C1=C(C)NC(=O)N(C(=O)OCC)C1c1ccccc1C(F)(F)F` (stereo not drawn) registered a melting point of 161 to 163 °C. Next, `O=C1Nc2cc(Br)ccc2Oc2cscc21`: 245 to 249 °C; `CC1COC(Cn2nc[nH]c2=S)(c2ccc(Oc3ccc(Cl)cc3)cc2Cl)O1` (stereo not drawn): 130 °C.

As for `CN1CCN(c2ccnc3c(NC(=O)c4c(Cl)cccc4Cl)cccc23)C1=O`, the melting point lay within 238 to 242 °C. The value for `O=[N+]([O-])c1ccc2c(c1)S(=O)(=O)NCN2CC(F)(F)F` was 191 to 193 °C; that for `O=C1CCc2cc(Br)c(NC(=O)C(F)(F)F)cc21` was 220 °C. The value for `CCc1nn(C2CCCC2)c2cc(C(=O)NCC(=O)O)ccc12` was 182 to 184 °C. Next, `O=NN(CCCl)C(=O)NCCOC(=O)c1cccnc1`: 63 to 64 °C. `COc1c(C)c(C)c(OC)c(CBr)c1C`: the melting point was in the range of 71 to 72 °C. As to `Cc1cc(CC(=O)c2ccc(F)cc2)on1`, the melting point was in the range of 92 to 93 °C. `O=c1[nH]nc2n1-c1ccc(Cl)nc1C(c1ccccc1)=[N+]([O-])C2`: the melting point is 268 to 270 °C.
